For experiment [1], the target named is Protein kinase C delta type (Homo sapiens) (UniProt Q05655). The experiment can be described thus: Inhibition of human truncated PKC delta expressed in baculovirus assessed as substrate phosphorylation using fluorescence-labelled peptides as substrate at 0.2 uM after 90 mins by microfluidic peptide phosphorylation assay.
The species named for a further experiment is Homo sapiens. In words: Inhibition of human P70S6K catalytic domain expressed in baculovirus assessed as substrate phosphorylation using fluorescence-labelled peptides as substrate at 0.2 uM after 90 mins by microfluidic peptide phosphorylation assay.
Experiment [2] addresses MAP/microtubule affinity-regulating kinase 3 (Homo sapiens) (UniProt P27448). In words: Inhibition of human full length c-TAK1 expressed in Escherichia coli cell assessed as substrate phosphorylation using fluorescence-labelled peptides as substrate at 0.1 uM after 90 mins by microfluidic peptide phosphorylation assay.
The target in experiment [3] is Aurora kinase B (Homo sapiens) (UniProt Q96GD4). Conditions: 0.1 uM.
Chain of Aurora kinase B (Homo sapiens) (Q96GD4 whole entry, the tested form may be a part): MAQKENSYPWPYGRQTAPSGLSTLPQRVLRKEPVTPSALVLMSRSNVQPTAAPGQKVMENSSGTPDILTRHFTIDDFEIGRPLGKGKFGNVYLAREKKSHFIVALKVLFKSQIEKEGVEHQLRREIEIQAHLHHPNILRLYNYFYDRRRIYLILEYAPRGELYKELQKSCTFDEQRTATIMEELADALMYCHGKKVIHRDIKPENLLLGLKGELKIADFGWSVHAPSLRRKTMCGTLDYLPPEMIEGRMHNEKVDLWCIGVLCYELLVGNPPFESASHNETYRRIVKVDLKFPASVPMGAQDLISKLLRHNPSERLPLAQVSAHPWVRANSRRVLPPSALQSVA
Description: Inhibition of human full length AurB expressed in baculovirus assessed as substrate phosphorylation using fluorescence-labelled peptides as substrate at 0.1 uM after 90 mins by microfluidic peptide phosphorylation assay
Experiment [4] deals with Tyrosine-protein kinase HCK (Homo sapiens) (UniProt P08631). In words: Inhibition of human HCK catalytic domain expressed in baculovirus assessed as substrate phosphorylation using fluorescence-labelled peptides as substrate at 420 uM after 90 mins by microfluidic peptide phosphorylation assay.
Chain of Tyrosine-protein kinase HCK (Homo sapiens) (P08631 2-526 limits assumed): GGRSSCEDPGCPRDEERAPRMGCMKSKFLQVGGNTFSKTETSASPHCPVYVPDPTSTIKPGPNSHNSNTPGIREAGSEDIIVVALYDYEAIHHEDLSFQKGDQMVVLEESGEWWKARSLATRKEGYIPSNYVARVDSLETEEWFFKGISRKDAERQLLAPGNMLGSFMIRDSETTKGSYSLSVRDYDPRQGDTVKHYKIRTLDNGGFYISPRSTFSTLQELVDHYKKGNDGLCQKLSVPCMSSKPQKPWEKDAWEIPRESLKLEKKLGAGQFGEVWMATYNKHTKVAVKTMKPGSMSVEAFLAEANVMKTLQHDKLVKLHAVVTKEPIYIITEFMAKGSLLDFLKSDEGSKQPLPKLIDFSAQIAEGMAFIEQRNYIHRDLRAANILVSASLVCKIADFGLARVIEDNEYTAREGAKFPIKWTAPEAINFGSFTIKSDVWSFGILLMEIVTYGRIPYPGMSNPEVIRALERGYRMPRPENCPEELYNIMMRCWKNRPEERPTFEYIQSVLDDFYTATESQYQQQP
Experiment [5] has as its target Protein kinase C gamma type (Homo sapiens) (UniProt P05129). The experiment can be described thus: Inhibition of human truncated PKC gamma expressed in baculovirus assessed as substrate phosphorylation using fluorescence-labelled peptides as substrate at 420 uM after 90 mins by microfluidic peptide phosphorylation assay.
Experiment [6] addresses T1, Serine/threonine-protein kinase Sgk2 (Homo sapiens) (UniProt Q9HBY8).
T1 sequence (whole entry): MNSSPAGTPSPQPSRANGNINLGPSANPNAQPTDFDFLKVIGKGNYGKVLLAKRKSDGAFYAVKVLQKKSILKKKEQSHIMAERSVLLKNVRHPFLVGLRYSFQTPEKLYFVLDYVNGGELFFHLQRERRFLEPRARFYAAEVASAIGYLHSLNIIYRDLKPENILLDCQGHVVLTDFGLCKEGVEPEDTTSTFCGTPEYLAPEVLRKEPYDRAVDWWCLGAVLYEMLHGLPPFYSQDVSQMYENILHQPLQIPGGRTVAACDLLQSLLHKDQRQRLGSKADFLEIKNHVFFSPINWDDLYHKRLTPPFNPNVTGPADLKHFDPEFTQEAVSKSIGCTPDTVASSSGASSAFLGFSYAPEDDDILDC
In words: Inhibition of human full length SGK2 expressed in baculovirus assessed as substrate phosphorylation using fluorescence-labelled peptides as substrate at 95 uM after 90 mins by microfluidic peptide phosphorylation assay.

For experiment [7], the system named is Fibroblast growth factor receptor 2 (Homo sapiens), P21802 [N549H]. The experiment can be described thus: Inhibition of human FGFR2 N549H mutant catalytic domain expressed in baculovirus assessed as substrate phosphorylation using fluorescence-labelled peptides as substrate at 9 uM after 90 mins by microfluidic peptide phosphorylation assay.
The target of experiment [8] is Epidermal growth factor receptor (Homo sapiens) (UniProt P00533). In words: Inhibition of human EGFR catalytic domain expressed in baculovirus assessed as substrate phosphorylation using fluorescence-labelled peptides as substrate at 8 uM after 90 mins by microfluidic peptide phosphorylation assay.
Chain of Epidermal growth factor receptor (Homo sapiens) (P00533 whole entry, the tested form may be a part): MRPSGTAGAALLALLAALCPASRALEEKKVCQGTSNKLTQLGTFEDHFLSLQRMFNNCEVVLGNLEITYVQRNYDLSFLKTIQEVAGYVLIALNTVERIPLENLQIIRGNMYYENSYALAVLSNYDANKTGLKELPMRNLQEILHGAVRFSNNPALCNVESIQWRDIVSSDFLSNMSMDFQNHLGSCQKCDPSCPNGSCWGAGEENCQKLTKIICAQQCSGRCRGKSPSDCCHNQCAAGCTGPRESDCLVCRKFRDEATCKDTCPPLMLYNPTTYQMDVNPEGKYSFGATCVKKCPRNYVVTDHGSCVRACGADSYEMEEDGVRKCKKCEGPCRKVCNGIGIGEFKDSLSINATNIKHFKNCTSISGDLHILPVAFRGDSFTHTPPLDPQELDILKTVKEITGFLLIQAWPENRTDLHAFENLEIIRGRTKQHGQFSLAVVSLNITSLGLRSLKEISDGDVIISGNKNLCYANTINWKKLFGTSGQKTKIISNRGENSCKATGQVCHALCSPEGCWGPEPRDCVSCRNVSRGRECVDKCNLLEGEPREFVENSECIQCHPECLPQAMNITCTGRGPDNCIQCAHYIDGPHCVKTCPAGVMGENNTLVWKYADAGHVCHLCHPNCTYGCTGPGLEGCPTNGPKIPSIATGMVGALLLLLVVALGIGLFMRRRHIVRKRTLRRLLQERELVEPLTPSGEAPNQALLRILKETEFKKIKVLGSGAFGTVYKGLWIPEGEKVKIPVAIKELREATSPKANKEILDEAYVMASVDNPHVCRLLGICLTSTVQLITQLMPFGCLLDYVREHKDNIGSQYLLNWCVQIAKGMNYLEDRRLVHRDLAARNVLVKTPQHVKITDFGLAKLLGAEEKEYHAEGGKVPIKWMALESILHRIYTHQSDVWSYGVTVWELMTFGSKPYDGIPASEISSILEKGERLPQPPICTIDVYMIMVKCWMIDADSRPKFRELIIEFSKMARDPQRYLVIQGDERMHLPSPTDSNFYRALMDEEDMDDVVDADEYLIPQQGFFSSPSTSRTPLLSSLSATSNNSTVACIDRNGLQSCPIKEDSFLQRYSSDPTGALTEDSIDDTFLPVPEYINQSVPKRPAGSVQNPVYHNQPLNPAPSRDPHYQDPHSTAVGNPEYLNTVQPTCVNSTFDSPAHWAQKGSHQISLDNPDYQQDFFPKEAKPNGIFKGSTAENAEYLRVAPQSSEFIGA
Experiment [9] has as its target Serine/threonine-protein kinase pim-1 (Homo sapiens) (UniProt P11309). In words: Inhibition of human full length PIM1 expressed in baculovirus assessed as substrate phosphorylation using fluorescence-labelled peptides as substrate at 8 uM after 90 mins by microfluidic peptide phosphorylation assay.
Experiment [10] deals with T2, Serine/threonine-protein kinase D3 (Homo sapiens) (UniProt O94806).
T2 sequence (whole entry): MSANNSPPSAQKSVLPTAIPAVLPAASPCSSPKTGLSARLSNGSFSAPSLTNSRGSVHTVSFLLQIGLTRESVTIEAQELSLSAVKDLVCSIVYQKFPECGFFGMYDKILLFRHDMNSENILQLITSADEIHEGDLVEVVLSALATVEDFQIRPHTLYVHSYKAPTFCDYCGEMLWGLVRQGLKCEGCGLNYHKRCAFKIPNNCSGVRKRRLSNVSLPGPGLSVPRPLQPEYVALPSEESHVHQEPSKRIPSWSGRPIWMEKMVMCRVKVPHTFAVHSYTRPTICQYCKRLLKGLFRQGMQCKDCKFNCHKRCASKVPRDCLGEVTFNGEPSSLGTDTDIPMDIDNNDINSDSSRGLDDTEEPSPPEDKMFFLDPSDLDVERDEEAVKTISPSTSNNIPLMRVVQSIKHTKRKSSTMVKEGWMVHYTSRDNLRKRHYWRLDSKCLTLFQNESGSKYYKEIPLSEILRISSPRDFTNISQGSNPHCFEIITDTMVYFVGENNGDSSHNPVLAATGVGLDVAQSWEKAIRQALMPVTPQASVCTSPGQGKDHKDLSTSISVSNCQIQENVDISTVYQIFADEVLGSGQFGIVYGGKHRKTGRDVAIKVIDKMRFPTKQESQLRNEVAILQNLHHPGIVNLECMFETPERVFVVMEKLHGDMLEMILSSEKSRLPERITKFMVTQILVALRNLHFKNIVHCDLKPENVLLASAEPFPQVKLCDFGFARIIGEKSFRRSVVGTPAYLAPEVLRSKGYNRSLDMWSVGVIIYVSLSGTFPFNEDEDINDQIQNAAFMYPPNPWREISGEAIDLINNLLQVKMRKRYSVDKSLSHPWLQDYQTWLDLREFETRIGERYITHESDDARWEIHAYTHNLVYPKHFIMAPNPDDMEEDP
The experiment can be described thus: Inhibition of human full length PKD3 expressed in baculovirus assessed as substrate phosphorylation using fluorescence-labelled peptides as substrate at 8 uM after 90 mins by microfluidic peptide phosphorylation assay.

Experiment [11] concerns the target Cyclin-dependent kinase 2 (Homo sapiens) (UniProt P24941). The experiment can be described thus: Inhibition of human full length CDK2 expressed in baculovirus assessed as substrate phosphorylation using fluorescence-labelled peptides as substrate at […] after 90 mins by microfluidic peptide phosphorylation assay.
For experiment [12], the target named is Serine/threonine-protein kinase pim-1 (Homo sapiens) (UniProt P11309). In words: Inhibition of human full length PIM1 expressed in baculovirus assessed as substrate phosphorylation using fluorescence-labelled peptides as substrate at […] after 90 mins by microfluidic peptide phosphorylation assay.
Chain of Serine/threonine-protein kinase pim-1 (Homo sapiens) (P11309 whole entry, looked up, the tested form may be a part): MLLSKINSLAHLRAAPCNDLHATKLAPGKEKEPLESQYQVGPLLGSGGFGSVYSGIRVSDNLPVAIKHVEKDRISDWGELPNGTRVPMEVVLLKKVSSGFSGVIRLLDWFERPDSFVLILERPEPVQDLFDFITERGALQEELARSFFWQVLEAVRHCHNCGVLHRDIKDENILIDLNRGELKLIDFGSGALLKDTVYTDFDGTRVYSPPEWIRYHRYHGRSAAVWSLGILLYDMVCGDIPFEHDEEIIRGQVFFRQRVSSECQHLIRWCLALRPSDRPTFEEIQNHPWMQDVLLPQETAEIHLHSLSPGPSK
Experiment [13] deals with Mitogen-activated protein kinase 14 (Homo sapiens) (UniProt Q16539). In words: Inhibition of human truncated p38 alpha expressed in Escherichia coli cell assessed as substrate phosphorylation using fluorescence-labelled peptides as substrate at […] after 90 mins by microfluidic peptide phosphorylation assay.
Chain of Mitogen-activated protein kinase 14 (Homo sapiens) (Q16539 whole entry, the tested form may be a part): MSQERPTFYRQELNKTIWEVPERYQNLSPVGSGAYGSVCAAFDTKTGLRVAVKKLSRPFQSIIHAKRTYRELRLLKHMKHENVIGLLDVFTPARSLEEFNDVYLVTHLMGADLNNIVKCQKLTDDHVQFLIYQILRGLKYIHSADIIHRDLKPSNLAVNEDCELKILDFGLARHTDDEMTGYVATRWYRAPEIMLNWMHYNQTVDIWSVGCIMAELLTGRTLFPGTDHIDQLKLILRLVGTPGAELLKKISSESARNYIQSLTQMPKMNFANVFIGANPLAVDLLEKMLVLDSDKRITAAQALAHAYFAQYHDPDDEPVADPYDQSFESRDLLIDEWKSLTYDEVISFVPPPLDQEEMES
Experiment [14] concerns the target Receptor-type tyrosine-protein kinase FLT3 (Homo sapiens) (UniProt P36888). In words: Inhibition of human FLT3 catalytic domain expressed in baculovirus assessed as substrate phosphorylation using fluorescence-labelled peptides as substrate at 1000 uM after 90 mins by microfluidic peptide phosphorylation assay.
For experiment [15], the target named is Tyrosine-protein kinase HCK (Homo sapiens) (UniProt P08631). The experiment can be described thus: Inhibition of human HCK catalytic domain expressed in baculovirus assessed as substrate phosphorylation using fluorescence-labelled peptides as substrate at 2 uM after 90 mins by microfluidic peptide phosphorylation assay.
The target of experiment [16] is MAP kinase p38 (Homo sapiens) (UniProt O15264+Q15759+Q16539+P53778). In words: Inhibition of human full length p38 beta2 expressed in Escherichia coli cell assessed as substrate phosphorylation using fluorescence-labelled peptides as substrate at 2 uM after 90 mins by microfluidic peptide phosphorylation assay.
Chain of MAP kinase p38 (Homo sapiens) (O15264 whole entry, looked up): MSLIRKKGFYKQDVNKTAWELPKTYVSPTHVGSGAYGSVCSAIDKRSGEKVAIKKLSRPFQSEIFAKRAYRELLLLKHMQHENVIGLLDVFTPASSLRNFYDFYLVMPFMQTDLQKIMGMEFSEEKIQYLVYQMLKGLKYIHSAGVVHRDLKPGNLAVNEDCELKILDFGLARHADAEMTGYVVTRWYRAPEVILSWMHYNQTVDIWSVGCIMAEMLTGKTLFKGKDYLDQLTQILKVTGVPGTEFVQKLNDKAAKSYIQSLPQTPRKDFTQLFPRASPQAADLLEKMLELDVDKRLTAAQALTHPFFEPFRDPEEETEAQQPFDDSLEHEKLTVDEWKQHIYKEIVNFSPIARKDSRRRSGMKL
Chain of MAP kinase p38 (Homo sapiens) (P53778 whole entry, looked up): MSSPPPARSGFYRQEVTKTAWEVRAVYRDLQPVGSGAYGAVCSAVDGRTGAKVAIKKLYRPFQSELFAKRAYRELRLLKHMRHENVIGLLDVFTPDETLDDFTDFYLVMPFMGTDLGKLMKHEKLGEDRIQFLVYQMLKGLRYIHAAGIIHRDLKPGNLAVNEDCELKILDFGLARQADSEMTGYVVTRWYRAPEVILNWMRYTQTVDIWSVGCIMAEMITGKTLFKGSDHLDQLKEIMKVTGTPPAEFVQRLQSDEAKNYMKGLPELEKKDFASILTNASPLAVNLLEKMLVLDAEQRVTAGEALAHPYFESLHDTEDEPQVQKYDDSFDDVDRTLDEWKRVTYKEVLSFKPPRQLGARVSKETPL
Chain of MAP kinase p38 (Homo sapiens) (Q15759 whole entry, looked up): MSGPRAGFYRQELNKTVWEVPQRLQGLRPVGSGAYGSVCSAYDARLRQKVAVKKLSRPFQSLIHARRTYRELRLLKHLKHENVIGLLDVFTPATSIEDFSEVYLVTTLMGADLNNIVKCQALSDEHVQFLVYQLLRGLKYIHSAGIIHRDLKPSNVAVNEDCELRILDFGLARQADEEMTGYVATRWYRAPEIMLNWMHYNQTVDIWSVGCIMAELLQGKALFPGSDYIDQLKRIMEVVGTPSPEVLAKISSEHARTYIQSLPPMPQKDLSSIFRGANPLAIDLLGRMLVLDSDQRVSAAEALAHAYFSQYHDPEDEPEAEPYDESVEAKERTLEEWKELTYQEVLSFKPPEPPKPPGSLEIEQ
Chain of MAP kinase p38 (Homo sapiens) (Q16539 whole entry, looked up): as the sequence (Q16539 whole entry, the tested form may be a part) above

Chain of Receptor-type tyrosine-protein kinase FLT3 (Homo sapiens) (P36888 whole entry, the tested form may be a part): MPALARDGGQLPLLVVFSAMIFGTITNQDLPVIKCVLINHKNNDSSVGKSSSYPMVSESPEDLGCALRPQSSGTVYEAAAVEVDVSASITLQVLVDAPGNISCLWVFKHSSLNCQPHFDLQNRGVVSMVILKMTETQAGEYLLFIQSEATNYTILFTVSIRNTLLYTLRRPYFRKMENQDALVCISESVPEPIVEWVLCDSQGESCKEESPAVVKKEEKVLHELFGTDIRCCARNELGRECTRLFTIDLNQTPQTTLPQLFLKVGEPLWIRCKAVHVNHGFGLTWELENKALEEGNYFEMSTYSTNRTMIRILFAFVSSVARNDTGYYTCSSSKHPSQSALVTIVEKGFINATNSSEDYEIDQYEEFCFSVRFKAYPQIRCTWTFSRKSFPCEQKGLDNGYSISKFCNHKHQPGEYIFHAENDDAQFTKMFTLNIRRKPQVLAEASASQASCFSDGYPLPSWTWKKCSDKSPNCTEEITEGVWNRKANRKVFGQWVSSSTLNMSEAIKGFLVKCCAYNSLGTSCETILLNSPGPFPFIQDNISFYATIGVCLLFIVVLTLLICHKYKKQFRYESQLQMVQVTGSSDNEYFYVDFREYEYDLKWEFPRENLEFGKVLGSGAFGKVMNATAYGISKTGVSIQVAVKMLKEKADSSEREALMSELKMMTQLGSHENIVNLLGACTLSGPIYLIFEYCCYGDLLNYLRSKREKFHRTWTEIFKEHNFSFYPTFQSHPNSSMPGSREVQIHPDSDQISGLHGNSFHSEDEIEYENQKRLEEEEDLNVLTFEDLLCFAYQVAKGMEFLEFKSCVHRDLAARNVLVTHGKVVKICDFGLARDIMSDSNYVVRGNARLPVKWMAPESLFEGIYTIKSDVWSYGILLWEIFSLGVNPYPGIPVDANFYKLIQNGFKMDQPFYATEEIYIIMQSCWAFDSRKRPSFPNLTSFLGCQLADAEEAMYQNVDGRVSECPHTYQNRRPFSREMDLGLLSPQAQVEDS

Regarding `Clc1ccc(C2(c3ccc(-c4ncnc5[nH]cnc45)cc3)CCNCC2)cc1`, the inhibition stood at 37.5% in [1] and 87.5% in the experiment filed under Homo sapiens.

For `C[C@H](CN(C)C)Oc1nc(Nc2cc3cccc(Cl)c3cn2)cnc1C#N`, the inhibition in experiment [2] came to 6%; in experiment [3], 0%.

As to `c1nc(N2CCOCC2)c2nc[nH]c2n1`, the inhibition was 69.5% in experiment [4] and 66% in experiment [5].

`NCCc1ccc(-c2ncnc3[nH]cnc23)cc1`: in [6], the inhibition was found to be 50.5%.

Consider `NCC1CN(c2ncnc3[nH]c4cnccc4c23)CCO1` (configuration not stated), for which the inhibition in [7] was determined as 47.5%.

Take `NCC1CCN(c2ncnc3[nH]ccc23)CC1`: the inhibition worked out at 33% in [8], 9% in experiment [9] and 0% in experiment [10].

As for `COC(=O)c1cnc(Nc2cnc(C#N)cn2)cc1NCC1CCNCC1`, the inhibition came out at 6% in experiment [11], 7% in experiment [12] and 2% in experiment [13].

As to `c1cnc2[nH]ccc2c1`, the inhibition in experiment [14] came to 75.5%.

Turning to `NC1CCN(c2ncnc3[nH]ccc23)CC1`, the inhibition in experiment [15] was 3%; in experiment [16], 5.5%.

Values taken from ChEMBL document CHEMBL3132769, “Fragment growing to retain or alter the selectivity of anchored kinase hinge-binding fragments” (Medchemcomm, 2014).
